# Experimental data reported in US20250145579A1, “PROCESS FOR MANUFACTURING AN LPXC ANALOG” (Zoetis Services LLC, priority 2022, published 2025).
# “Also recorded” adds a separate entry of the source.
# Test: Relative stability of isolated solid forms (slurry experiments, XRD)
# Type: physicochemical
# Details: for relative stability of the solid form: as isolated solids
# Procedure: A number of polymorphic forms of (R)-4-(4-(4-(2H-1,2,3-triazol-2-yl)phenyl)-2-oxopyridin-1 (2H)-yl)-N-hydroxy-2-methyl-2-(methylsulfonyl)-butanamide were prepared (Forms 1, 2 and 3) as API slurries in a number of protic and aprotic solvents. With the exception of acetonitrile, methyl ethyl ketone, and tetrahydrofuran, the use of aprotic solvents like ethyl, butyl or propyl acetate result in Form 1. With the exception of water, the use of protic solvents such as butyl, propyl and ethyl alcohol favor the formation of Form 2. An unstable Form 3 was also noted. The presence of water in alcohols increased the rate of Form 2 isolation from solution. […] The three forms were structurally related and were solvated and/or hydrated.
# The relative stability of the three isolated solid forms appears to be different as suspensions compared to isolated solids. […] As suspensions, the relative stability of these solvates is dependent on the solvent or solvent/water mixture that is present.
# It is very likely that these three solvated solids are nearly isostructural and differ in subtle ways that are linked to the way solvent or water are packed into the solvation sites in the structure. There is an increasing complexity of the XRD patterns with Form 1 being the most complex (most peaks) and Form 3 having the fewest peaks. This pattern complexity (F1>F2>F3) parallels the apparent stability of the dried isolated samples. Out of 384 solvent mixtures, a total of 90 samples were mixtures rather than pure phase Forms.
# The X-ray diffractograms were obtained on a Scintag X1 powder diffractometer equipped with a Peltier cooled solid state detector. Data were collected between 4 and 40° 20 using a 0.03° step size and data acquisition time was 45 to 60 minutes for sample characterization. Data collection for solids isolated from the bulk of the small scale preliminary experiments was at a 0.04° step size over 15 minutes between 7 and 37 degrees 2-theta. Copper Kα radiation (λ=1.54056 Å) was utilized and the tube voltage and amperage were set to 45 kV and 40 mA, respectively. […]
relative stability of the solid form,SMILES,stability of the solid form / form conversion (by XRD patterns of isolated solids from slurries)
most stable form,"C[C@@](CCn1ccc(-c2ccc(-n3nccn3)cc2)cc1=O)(C(=O)NO)S(C)(=O)=O [Form 1, (R)-4-(4-(4-(2H-1,2,3-triazol-2-yl)phenyl)-2-oxopyridin-1 (2H)-yl)-N-hydroxy-2-methyl-2-(methylsulfonyl)-butanamide]",
meta-stable relative to Form 1,"C[C@@](CCn1ccc(-c2ccc(-n3nccn3)cc2)cc1=O)(C(=O)NO)S(C)(=O)=O [Form 2, (R)-4-(4-(4-(2H-1,2,3-triazol-2-yl)phenyl)-2-oxopyridin-1 (2H)-yl)-N-hydroxy-2-methyl-2-(methylsulfonyl)-butanamide]",
,"C[C@@](CCn1ccc(-c2ccc(-n3nccn3)cc2)cc1=O)(C(=O)NO)S(C)(=O)=O [Form 3, (R)-4-(4-(4-(2H-1,2,3-triazol-2-yl)phenyl)-2-oxopyridin-1 (2H)-yl)-N-hydroxy-2-methyl-2-(methylsulfonyl)-butanamide]",unstable; also recorded: meta-stable and converts to Form 2
